Data published in US20100291605A1, “ASSAYS FOR S-ADENOSYLMETHIONINE-DEPENDENT […]” (WASHINGTON STATE UNIVERSITY RESEARCH FOUNDATION, priority 2006, published 2010).
Blank lines part the entries; values can stand above or below the compound they belong to. Where no end group is shown, it is not given here. acyl = not defined here

What was measured:
[1] = target: PRMT1 (Rattus norvegicus, UniProt Q63009); assay: enzyme-coupled continuous spectrophotometric methyltransferase assay (265 nm); settings: for Vmax, R3 compared with JMH1: peptide substrates of PRMT1, in words
Chain of PRMT1 (Q63009 whole entry): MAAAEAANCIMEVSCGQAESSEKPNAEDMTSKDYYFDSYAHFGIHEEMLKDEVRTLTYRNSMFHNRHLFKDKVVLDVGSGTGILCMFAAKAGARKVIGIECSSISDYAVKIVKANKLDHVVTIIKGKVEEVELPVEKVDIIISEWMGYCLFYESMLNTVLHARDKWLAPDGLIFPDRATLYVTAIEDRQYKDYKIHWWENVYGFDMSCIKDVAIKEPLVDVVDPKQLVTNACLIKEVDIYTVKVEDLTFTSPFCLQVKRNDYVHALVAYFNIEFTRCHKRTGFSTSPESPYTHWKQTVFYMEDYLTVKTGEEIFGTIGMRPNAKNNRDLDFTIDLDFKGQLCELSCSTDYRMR

[2] = target: adenine deaminase (Bacillus subtilis, UniProt P39761); format: biochemical; settings: hypoxanthine 3.5 μM to 142 μM, in the presence of 13.3 μM adenine
Chain of adenine deaminase (P39761 whole entry): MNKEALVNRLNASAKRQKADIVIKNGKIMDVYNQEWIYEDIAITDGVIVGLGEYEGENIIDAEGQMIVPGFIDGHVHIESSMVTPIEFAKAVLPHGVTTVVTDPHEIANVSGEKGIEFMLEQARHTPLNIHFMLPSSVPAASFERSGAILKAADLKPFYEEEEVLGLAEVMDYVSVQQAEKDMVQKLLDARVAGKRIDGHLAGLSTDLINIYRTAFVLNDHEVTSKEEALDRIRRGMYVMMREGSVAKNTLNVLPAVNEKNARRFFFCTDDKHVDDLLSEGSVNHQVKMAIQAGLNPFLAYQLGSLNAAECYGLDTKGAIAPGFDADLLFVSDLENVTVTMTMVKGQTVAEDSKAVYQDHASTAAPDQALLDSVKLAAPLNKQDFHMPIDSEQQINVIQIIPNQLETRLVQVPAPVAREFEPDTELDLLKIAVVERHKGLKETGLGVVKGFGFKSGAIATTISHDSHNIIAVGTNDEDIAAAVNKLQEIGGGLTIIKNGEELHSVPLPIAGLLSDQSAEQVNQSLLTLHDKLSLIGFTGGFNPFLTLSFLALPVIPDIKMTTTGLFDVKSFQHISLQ

- rate, continuous spectrophotometric assay ([1]; 2 μM PRMT1, 211 μM R3): 5.1±0.2 μM AdoHyc formed/min
- Vmax, R3 compared with JMH1 [1]: similar
Compound: acylGGRGGFGGRGGFGGRGGFG (SEQ ID NO:3) [R3]

- Vmax ([1]; peptide substrate of PRMT1): 5.7 ± 0.2 µM/min
Compound: acylSGRGKGGKGLGKGGAK (SEQ ID NO:1) [H4 peptide]

- Vmax, R3 compared with JMH1 [1]: similar
Compound: acylKGGFGGRGGFGGK (SEQ ID NO:2) (acyl-KGGFGGRGGFGGK; reading uncertain; also: N-terminal acyl group not given here, printed as acylKGGFGGRGGFGGK) [JMH1]

Compound: O=c1[nH]cnc2nc[nH]c12 [hypoxanthine]
- inhibition of adenine deaminase [2]: did not inhibit
